Converted amounts (≈) assume the structure as drawn.
Tests used:
Type in all cases: cell-based, Staphylococcus aureus
S. aureus USA300 (MRSA) [1] = test: Antibiotic repotentiation (antibiotic MIC with/without compound); conditions: for Oxacillin MIC / Fold Reduction: +50 μM compound, S. aureus USA300 (MRSA); for Fold Reduction: oxacillin MIC; for MIC of antibiotic: MRSA USA300
Method: (§1) The overnight culture was diluted into fresh CAMHB to a concentration of 5×10^5 CFU/ml. […] On the same plate, a standard microdilution MIC with the tested antibiotics and no added compound was also performed to compare the antibiotic MIC in the presence and absence of compound. […] Fold reductions were calculated by dividing the MIC of the antibiotic without compound by the MIC of the antibiotic in the presence of compound.
(§2) The compounds were then analyzed for antibiotic repotentiation activity. […] The tested strains included USA300, which is a common and particularly virulent strain of community-acquired MRSA.

S. aureus 43300 (MRSA) = test: as above
Method: as §1, §2

S. aureus USA100 (MRSA) [2] = test: microbe, parasite or virus in culture; conditions: compound alone, CAMHB, 18 h
S. aureus USA100 (MRSA) [3] = test: Antibiotic repotentiation (antibiotic MIC with/without compound)
Method: as §1

S. aureus USA300 (MRSA) [4] = test: Minimum inhibitory concentration, broth microdilution; conditions: compound alone; S. aureus USA300 (MRSA); CAMHB, 18 h; read-out: MIC
Method: as §2

[5] = system: S. aureus ATCC 43300 (MRSA); test: as above; conditions: compound alone; S. aureus ATCC 43300 (MRSA); CAMHB, 18 h; read-out: MIC
Method: as §2

[6] = system: S. aureus NR-49120 (VRSA); test: Antibiotic repotentiation (antibiotic MIC with/without compound); conditions: VRSA NR-49120; for Fold Reduction: antibiotic MIC
Method: as §1

MRSA 43300 biofilm = test: Biofilm inhibition, crystal violet assay; conditions: 30 h
Method: A standard static crystal violet assay was used to quantify biofilm inhibition.^45 Cultures of S. aureus or S. epidermidis were grown overnight in TSBG (tryptic soy broth with 5% glucose) at 37° C. with shaking. These cultures were used to inoculate fresh TSBG to a calculated optical density of 0.01 at 600 nm (OD600). […] Untreated aliquots were used as a positive control and water served as a negative control. 100 μl of these suspensions were added to the wells of a 96-well polyvinylchloride microtiter plate. […] After incubation, media was discarded and the plates were washed with water to remove non-adherent cells. Adherent biofilms were stained with 110 μl of crystal violet (0.1% in water) and incubated at room temperature for thirty minutes. The crystal violet staining solution was discarded and plates were washed with water to remove excess stain. The resulting stained biofilms were solubilized with 200 μL of 95% ethanol for 10 minutes. 125 μl of the ethanol solutions were transferred to a clear polystyrene microtiter plate for evaluation. Absorbance at 540 nm was recorded using a BioTek Synergy H1 microplate reader. The absorbance of the negative control lanes was subtracted from the experimental values to account for background staining. Percent inhibition was calculated by comparison of the absorbance values of control versus treated wells under identical conditions.
Antibiotic resistance and biofilm formation share similar regulatory mechanisms. […] Biofilm inhibition was first assessed in S. aureus 43300, a methicillin-resistant strain (see Table 18). As described in Materials and Methods, a standard crystal violet assay was used to assess biofilm inhibition by the tested compounds. The IC50 is described as the compound concentration required to inhibit 50% of biofilm formation. The standard deviation is calculated from at least 3 independent experiments.

[7] = +50 μM compound, S. aureus 43300 (MRSA)
[8] = oxacillin MIC, +50 μM compound, S. aureus 43300 (MRSA)
[9] = +50 μM compound, S. aureus USA100 (MRSA)
[10] = oxacillin MIC, +50 μM compound, S. aureus USA100 (MRSA)
[11] = +Amoxapine (150 μM), S. aureus 43300 (MRSA)
[12] = antibiotic MIC, +Amoxapine (150 μM), S. aureus 43300 (MRSA)
[13] = antibiotic MIC, +Loratadine 25 μM, MRSA 43300
[14] = antibiotic MIC, +Loratadine 50 μM, MRSA 43300
[15] = antibiotic alone, no compound, S. aureus 43300 (MRSA)
[16] = antibiotic alone, S. aureus ATCC 43300 (MRSA)
[17] = antibiotic MIC, +Loratadine 25 μM, MRSA USA100
[18] = antibiotic MIC, +Loratadine 50 μM, MRSA USA100

Row | Compound | Oxacillin MIC (S. aureus USA300 (MRSA) [1]) | Fold Reduction (S. aureus USA300 (MRSA) [1]) | Oxacillin MIC (S. aureus 43300 (MRSA); [7]) [µg/mL] | Fold Reduction (S. aureus 43300 (MRSA); [8]) | MIC (S. aureus USA100 (MRSA) [2]) [µM] | Oxacillin MIC (S. aureus USA100 (MRSA) [3]; [9]) [µg/mL] | Fold Reduction (S. aureus USA100 (MRSA) [3]; [10]) | MIC (S. aureus USA300 (MRSA) [4]) [µM] | MIC [5] [µM] | MIC of antibiotic (S. aureus USA300 (MRSA) [1]; +Loratadine 25 μM) [µg/mL] | MIC of antibiotic (S. aureus USA300 (MRSA) [1]; +Loratadine 50 μM) [µg/mL] | MIC of antibiotic (S. aureus USA300 (MRSA) [1]; antibiotic alone) [µg/mL] | MIC of antibiotic (S. aureus 43300 (MRSA); [11]) [µg/mL] | MIC of antibiotic (S. aureus 43300 (MRSA); +Loratadine 25 μM, MRSA 43300) | MIC of antibiotic (S. aureus 43300 (MRSA); +Loratadine 50 μM, MRSA 43300) | Fold Reduction (S. aureus 43300 (MRSA); [12]) | Fold Reduction (S. aureus 43300 (MRSA); [13]) | Fold Reduction (S. aureus 43300 (MRSA); [14]) | MIC of antibiotic (S. aureus 43300 (MRSA); [15]) [µg/mL] | MIC of antibiotic (S. aureus 43300 (MRSA); [16]) [µg/mL] | further results
1 | Brc1cccc2c1[nH]c1ccccc12 [IV-2] | 16/8 | 4/8 | 4 | 8 | >200 | 8 | 64 | >200 | >200 | – | – | – | – | – | – | – | – | – | – | – | –
2 | CN[C@H](CC(C)C)C(=O)N[C@H]1C(=O)N[C@@H](CC(N)=O)C(=O)N[C@H]2C(=O)N[C@H]3C(=O)N[C@H](C(=O)N[C@H](C(=O)O)c4cc(O)cc(O)c4-c4cc3ccc4O)[C@H](O)c3ccc(c(Cl)c3)Oc3cc2cc(c3O[C@@H]2O[C@H](CO)[C@@H](O)[C@H](O)[C@H]2O[C@H]2C[C@](C)(N)[C@H](O)[C@H](C)O2)Oc2ccc(cc2Cl)[C@H]1O [Vancomycin] | – | – | – | – | – | – | – | – | – | 1 | 1 | 1 | 2 | 1 µg/mL | 1 µg/mL | 1 | 1 | 1 | 2 | 1 | MIC of antibiotic ([6]; +Loratadine 25 μM): 512 µg/mL; MIC of antibiotic ([6]; +Loratadine 50 μM): 128 µg/mL; Fold Reduction ([6]; +Loratadine 25 μM): 2; Fold Reduction ([6]; +Loratadine 50 μM): 8; MIC of antibiotic ([6]; antibiotic alone): 1024 µg/mL; MIC of antibiotic (S. aureus USA100 (MRSA) [3]; +Loratadine 25 μM, MRSA USA100): 2 µg/mL; MIC of antibiotic (S. aureus USA100 (MRSA) [3]; +Loratadine 50 μM, MRSA USA100): 2 µg/mL; Fold Reduction (S. aureus USA100 (MRSA) [3]; [17]): 1; Fold Reduction (S. aureus USA100 (MRSA) [3]; [18]): 1; MIC of antibiotic (S. aureus USA100 (MRSA) [3]; antibiotic alone, MRSA USA100): 2 µg/mL
3 | Clc1ccc2[nH]c3ccc(Cl)cc3c2c1 [IV-6] | 16/8 | 4/8 | 1 | 32 | >200 | – | 1024/2048 | >200 | >200 | – | – | – | – | – | – | – | – | – | – | – | IC50 (MRSA 43300 biofilm): 10.2 µM
4 | Brc1ccc2[nH]c3ccccc3c2c1 [IV-3] | 64 µg/mL | 1 | 16 | 2 | >200 | 512 | 1 | >200 | >200 | – | – | – | – | – | – | – | – | – | – | – | –
5 | Brc1cccc2[nH]c3ccccc3c12 [IV-4] | 2 µg/mL | 32 | 32 | 1 | 100 (≈ 24.6 µg/mL) | 4 | 128 | 100 | 200 | – | – | – | – | – | – | – | – | – | – | – | –
6 | CC1(C)S[C@@H]2[C@H](NC(=O)[C@H](N)c3ccccc3)C(=O)N2[C@H]1C(=O)O [Ampicillin] | – | – | – | – | – | – | – | – | – | 8 | 0.5 | 8 | 4 | 16/8 | 1/2 | 8 | 1/2 | 4 | 32 | 16 | MIC of antibiotic ([6]; +Loratadine 25 μM): 16 µg/mL; MIC of antibiotic ([6]; +Loratadine 50 μM): 4 µg/mL; Fold Reduction ([6]; +Loratadine 25 μM): 1; Fold Reduction ([6]; +Loratadine 50 μM): 4; MIC of antibiotic ([6]; antibiotic alone): 16 µg/mL; MIC of antibiotic (S. aureus USA100 (MRSA) [3]; +Loratadine 25 μM, MRSA USA100): 16 µg/mL; MIC of antibiotic (S. aureus USA100 (MRSA) [3]; +Loratadine 50 μM, MRSA USA100): 1/2; Fold Reduction (S. aureus USA100 (MRSA) [3]; [17]): 2; Fold Reduction (S. aureus USA100 (MRSA) [3]; [18]): 32/16; MIC of antibiotic (S. aureus USA100 (MRSA) [3]; antibiotic alone, MRSA USA100): 32 µg/mL

— patent US12115208B2, “Small-molecule adjuvants for antibiotics to address antibiotic resistance” (HIGH POINT UNIVERSITY, priority 2017, dated 2024)
